Laboratory results taken from US20090163481A1, “PPAR-DELTA LIGANDS AND METHODS OF THEIR USE” (priority 2007, published 2009).
Like-named read-outs stand apart in the source and are kept apart here.

What was measured:
A549 cultures = assay: Real time PCR mRNA analysis of CDK2, CDK4, cyclin D1 in A549; format: cell-based, human; settings: A549, 20 μM, 0.5% FBS, 24 and 48 h
Description: Referring now to FIG. 5D, to better define the level of regulation of SR13904 on cell cycle proteins, CDK2, CDK4, and cyclin D1 were selected for mRNA analysis using real time PCR. A549 cultures were treated with SR13904 (20 μM; 0.5% FBS) and sampled at 24- and 48-h time-points. […] For CDK2 the differences (SR13904-treated vs. vehicle control-treated) were significant (*p=0.01-0.05, **p=0.00-0.01). Computational analysis of the proximal human CDK2 promoter identified a number of putative consensus PPREs. None were found within the proximal promoter regions of the CDK4 and cyclin D1 genes. SR13904 may directly affect the transcriptional activity of CDK2 while exerting indirect effects on the expression of the CDK4 and cyclin D1 proteins, perhaps through control over PPARδ-dependent signaling pathways.

[1] = target: T1, ligand binding domain of PPAR delta (Homo sapiens, UniProt Q03181); assay: LANTHA SCREEN TR-FRET PPARδ Competitive Binding Assay
T1 construct: purchased Invitrogen
T1 sequence (Q03181 211-439 limits assumed): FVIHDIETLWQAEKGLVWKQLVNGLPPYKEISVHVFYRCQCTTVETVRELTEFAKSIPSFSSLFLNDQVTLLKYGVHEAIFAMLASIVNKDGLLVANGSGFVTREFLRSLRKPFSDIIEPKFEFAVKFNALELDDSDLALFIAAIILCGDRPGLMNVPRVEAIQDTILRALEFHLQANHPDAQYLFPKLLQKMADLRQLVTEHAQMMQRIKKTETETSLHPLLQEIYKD
Description: The LANTHA SCREEN™ TR-FRET PPARδ Competitive Binding Assay was conducted for a variety of compounds according to the instructions provided by the manufacturer (Invitrogen). In addition, proliferation assays were conducted. In Table 2, “Prolif IC50” is the concentration that inhibits cell viability (or growth) by 50% relative to a vehicle control, and “TR-F binding IC50 (μM)” is the concentration that competes binding by a labeled pan-agonist to the ligand binding domain of PPAR delta, by 50%.

A549 cells = assay: Apoptosis, Cell Death Detection ELISA (DNA fragmentation) in A549 cells; format: cell-based, human; settings: A549, 0.5% serum, SR13904 15 μM, 40 h
Description: Referring now to FIG. 6, SR13904 treatment of cancer cells results in increased apoptosis. A549 cells (2×10^4 cells/well) were incubated in 0.5% media (96 well plates) SR13904 for 40 h. The relative degrees of apoptosis were determined using a Cell Death Detection ELISA (Roche). SR represents SR13904. ***p=<0.001 SR vs. SR+GW501.
SR13904 treatment results in increased apoptosis. Down-regulation of PPARδ, either by genetic knockout or by the treatment with 13-S—HODE (15-lipoxygenase-1 product), induces apoptosis in colorectal cancer cells. The effects of SR13904 (15 μM) GW501 (1 μM) on survival of A549 cells (0.5% serum) was determined. Relative degrees of apoptosis were measured using a DNA fragmentation assay.

Huh7 = assay: Alamar Blue proliferation assay, Huh7; format: cell-based; settings: Homo sapiens, Huh-7, 96 h; Huh7, 0-40 μM, 0.5% serum, 4 days; read-out: IC50 for growth inhibition
Description: The effect of SR13904 on the proliferation of these cell lines was determined by an Alamar Blue assay. Exponentially growing cells were treated with a range of SR13904 concentrations (0-40 μM; in 0.5% serum) over 4 days and proliferation curves were determined. The IC50 values for growth inhibition by SR13904 for each cell line were determined. […] In addition, colony formation assays with SR13904 were performed with both A549 and Huh7 cells.

PPARγ LBD = target: T2, PPARγ LBD (Homo sapiens, UniProt P37231); assay: PPARγ LBD binding and transactivation (ciglitazone competition); format: cell-based; settings: data not shown
T2 construct: expressed in transfected cells; host or cells: U2-OS (inferred from the general testing procedure)
T2 sequence (P37231 238-503 limits assumed): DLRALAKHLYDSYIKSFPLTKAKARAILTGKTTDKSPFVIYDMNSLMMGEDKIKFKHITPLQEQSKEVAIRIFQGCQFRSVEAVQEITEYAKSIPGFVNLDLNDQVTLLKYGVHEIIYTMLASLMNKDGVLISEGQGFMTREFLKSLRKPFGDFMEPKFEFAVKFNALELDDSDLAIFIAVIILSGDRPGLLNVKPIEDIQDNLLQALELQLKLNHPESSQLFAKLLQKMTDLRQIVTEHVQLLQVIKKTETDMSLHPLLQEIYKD
Excerpt: Based on the cellular and molecular data generated, treatment of prostate cancer cells with SR 13904 attenuates a number of pro-tumorigenic activities that are likely to be associated with PPARδ. Furthermore, this nuclear receptor is now believed to be a master regulator of nuclear receptors, including both PPARγ and PPARα, and as such the inhibition of PPARδ activity modulates the other target transcription factors.

IC50 ([1]; competes binding by a labeled pan-agonist by 50%, * = determined by approximation from a semi log graph, read-out: TR-F binding IC50): 2400 nM | IC50 ([1]; repeat determination of TR-F binding IC50, read-out: repeat TR-F): 2100 nM | IC50 (Huh7): 8000 to 10000 nM | interference with ciglitazone binding to PPARγ LBD and transactivation (PPARγ LBD): interfere with ciglitazone binding
SMILES: Cc1cc(SCc2sc(-c3cccc4ccccc34)nc2C)ccc1OCC(=O)O [SR 13904]
CDK4 or cyclin D1 mRNA levels (A549 cultures): no effect | steady state levels of CDK2 mRNA (A549 cultures): significantly reduced | apoptosis (DNA fragmentation) (A549 cells): significant apoptotic effect
